{"source": "patent US20230348442A1", "about": "“GALECTIN-3 INHIBITING 2-HYDROXYCYCLOALKANE-1-CARBAMOYL DERIVATIVES” (Idorsia Pharmaceuticals Ltd, priority 2020, published 2023)"}
{"target": "human Gal-3 (hGal-3) (Homo sapiens (Human), UniProt P17931)", "sequence (P17931 whole entry)": "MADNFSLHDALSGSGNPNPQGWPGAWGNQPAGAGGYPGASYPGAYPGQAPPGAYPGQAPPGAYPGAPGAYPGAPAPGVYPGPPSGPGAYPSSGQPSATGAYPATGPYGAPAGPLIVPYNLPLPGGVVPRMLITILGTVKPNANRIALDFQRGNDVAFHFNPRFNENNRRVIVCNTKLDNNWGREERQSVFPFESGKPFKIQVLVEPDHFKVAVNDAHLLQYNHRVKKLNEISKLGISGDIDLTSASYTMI", "experiment": "competitive binding assay: binding of biotinylated hGal-3 to microplate-adsorbed asialofetuin (ASF), spectrophotometric", "conditions": "Activity on hGal-3; mean values of several measurements", "procedure": "Evaluation of Compound Inhibitory Activity (IC50)\nThe inhibitory activity of compounds is determined in competitive binding assays. This spectrophotometric assay measures the binding of biotinylated human Gal-3 (hGal-3) or human Gal-1 (hGal-1), respectively, to a microplate-adsorbed glycoprotein, asialofetuin (ASF) (Proc Natl Acad Sci USA. 2013 Mar. 26; 110(13):5052-7.). Alternatively, and preferably, a human Gal-1 version in which all six cysteines are substituted by serines may be used.\nBriefly, compounds are serially diluted in DMSO (working dilutions). ASF-coated 384 well plates are supplemented with 22.8 μL/well of biotinylated hGal-3 or hGal-1 in assay buffer (i.e. 300-1000 ng/mL biotinylated hGal-3 or hGal-1) to which 1.2 μL of compound working dilutions are added and mixed.\nPlates are incubated for 3 hours at 4° C., then washed with cold assay buffer (3×50 uL), incubated for 1 hour with 25 μL/well of a streptavidin-peroxidase solution (diluted in assay buffer to 80 ng/mL) at 4° C., followed by further washing steps with assay buffer (3×50 uL). Finally, 25 μL/well of ABTS substrate is added.\nThe calculated IC50 values may fluctuate depending on the daily assay performance. Fluctuations of this kind are known to those skilled in the art. IC50 values from several measurements are given as mean values.", "units": {"IC50": "nM"}}
{"smiles": "CO[C@@H]1[C@@H](n2cc(-c3cc(F)cc(Br)c3)nn2)[C@@H](O)[C@@H](CO)O[C@H]1C(=O)N(c1cc(C)cc(C#N)c1)[C@H]1CC[C@@H]1O", "note": "[Example 2.10.8, (2R,3R,4S,5R,6R)-4-(4-(3-bromo-5-fluorophenyl)-1H-1,2,3-triazol-1-yl)-N-(3-cyano-5-methylphenyl)-5-hydroxy-N-((1S,2S)-2-hydroxycyclobutyl)-6-(hydroxymethyl)-3-methoxytetrahydro-2H-pyran-2-carboxamide]", "IC50": 232}
{"smiles": "CO[C@@H]1[C@@H](n2cc(-c3ccc(Cl)c(Cl)c3)nn2)[C@@H](O)[C@@H](CO)O[C@H]1C(=O)N(c1cc(Cl)cc(C#N)c1)[C@@H]1CC[C@H]1O", "note": "[Example 2.8.4R, (2R,3R,4S,5R,6R)-N-(3-chloro-5-cyanophenyl)-4-(4-(3,4-dichlorophenyl)-1H-1,2,3-triazol-1-yl)-5-hydroxy-N-((1R,2R)-2-hydroxycyclobutyl)-6-(hydroxymethyl)-3-methoxytetrahydro-2H-pyran-2-carboxamide]", "IC50": 401}
{"smiles": "CO[C@@H]1[C@@H](n2cc(-c3ccc(Cl)c(Cl)c3)nn2)[C@@H](O)[C@@H](CO)O[C@H]1C(=O)N(c1cc(Br)cc(C#N)c1)[C@@H]1CC[C@H]1O", "note": "[Example 2.8.5R, (2R,3R,4S,5R,6R)-N-(3-bromo-5-cyanophenyl)-4-(4-(3,4-dichlorophenyl)-1H-1,2,3-triazol-1-yl)-5-hydroxy-N-((1R,2R)-2-hydroxycyclobutyl)-6-(hydroxymethyl)-3-methoxytetrahydro-2H-pyran-2-carboxamide]", "IC50": 446}
{"smiles": "CO[C@@H]1[C@@H](n2cc(-c3ccc(C)c(F)c3F)nn2)[C@@H](O)[C@@H](CO)O[C@H]1C(=O)N(c1cc(Br)cc(C#N)c1)[C@@H]1CCC[C@H]1O", "note": "[Example 1.11.5R, (2R,3R,4S,5R,6R)-N-(3-bromo-5-cyanophenyl)-4-(4-(2,3-difluoro-4-methylphenyl)-1H-1,2,3-triazol-1-yl)-5-hydroxy-N-((1R,2R)-2-hydroxycyclopentyl)-6-(hydroxymethyl)-3-methoxytetrahydro-2H-pyran-2-carboxamide]", "IC50": 73.1}
{"smiles": "CC(=O)O[C@@H]1[C@@H](n2cc(-c3cc(F)c(F)c(F)c3)nn2)[C@@H](O)[C@@H](CO)O[C@H]1C(=O)N(c1cc(Cl)cc(Cl)c1)[C@H]1CC[C@@H]1O", "note": "[Example 2A.1.2, (2R,3R,4S,5R,6R)-2-((3,5-dichlorophenyl)((1S,2S)-2-hydroxycyclobutyl)carbamoyl)-5-hydroxy-6-(hydroxymethyl)-4-(4-(3,4,5-trifluorophenyl)-1H-1,2,3-triazol-1-yl)tetrahydro-2H-pyran-3-yl acetate]", "IC50": 29}
{"smiles": "CO[C@@H]1[C@@H](n2cc(-c3cc(F)c(F)c(F)c3)nn2)[C@@H](O)[C@@H](CO)O[C@H]1C(=O)N(c1cc(Br)cc(Br)c1)[C@@H]1CCC[C@H]1O", "note": "[Example 1.1.11R, (2R,3R,4S,5R,6R)-N-(3,5-dibromophenyl)-5-hydroxy-N-((1R,2R)-2-hydroxycyclopentyl)-6-(hydroxymethyl)-3-methoxy-4-(4-(3,4,5-trifluorophenyl)-1H-1,2,3-triazol-1-yl)tetrahydro-2H-pyran-2-carboxamide]", "IC50": 390}
{"smiles": "CO[C@@H]1[C@@H](n2cc(-c3ccc(C)c(F)c3)nn2)[C@@H](O)[C@@H](CO)O[C@H]1C(=O)N(c1cc(C)cc(C#N)c1)[C@@H]1CCC[C@H]1O", "note": "[Example 1.13.8R, (2R,3R,4S,5R,6R)-N-(3-cyano-5-methylphenyl)-4-(4-(3-fluoro-4-methylphenyl)-1H-1,2,3-triazol-1-yl)-5-hydroxy-N-((1R,2R)-2-hydroxycyclopentyl)-6-(hydroxymethyl)-3-methoxytetrahydro-2H-pyran-2-carboxamide]", "IC50": 206}
{"smiles": "CO[C@@H]1[C@@H](n2cc(-c3cc(F)c(Cl)c(Cl)c3)nn2)[C@@H](O)[C@@H](CO)O[C@H]1C(=O)N(c1cc(Cl)cc(C#N)c1)[C@@H]1CCC[C@H]1O", "note": "[Example 1.17.4R, (2R,3R,4S,5R,6R)-N-(3-chloro-5-cyanophenyl)-4-(4-(3,4-dichloro-5-fluorophenyl)-1H-1,2,3-triazol-1-yl)-5-hydroxy-N-((1R,2R)-2-hydroxycyclopentyl)-6-(hydroxymethyl)-3-methoxytetrahydro-2H-pyran-2-carboxamide]", "IC50": 238}
{"smiles": "CO[C@@H]1[C@@H](n2cc(-c3ccc(C#N)c(F)c3)nn2)[C@@H](O)[C@@H](CO)O[C@H]1C(=O)N(c1cc(Cl)cc(C#N)c1)[C@@H]1CCC[C@H]1O", "note": "[Example 1.16.4R, (2R,3R,4S,5R,6R)-N-(3-chloro-5-cyanophenyl)-4-(4-(4-cyano-3-fluorophenyl)-1H-1,2,3-triazol-1-yl)-5-hydroxy-N-((1R,2R)-2-hydroxycyclopentyl)-6-(hydroxymethyl)-3-methoxytetrahydro-2H-pyran-2-carboxamide]", "IC50": 978}
{"smiles": "CO[C@@H]1[C@@H](n2cc(-c3cc(F)c(Br)c(F)c3)nn2)[C@@H](O)[C@@H](CO)O[C@H]1C(=O)N(c1cc(Br)cc(C#N)c1)[C@@H]1CC[C@H]1O", "note": "[Example 2.6.5R, (2R,3R,4S,5R,6R)-4-(4-(4-bromo-3,5-difluorophenyl)-1H-1,2,3-triazol-1-yl)-N-(3-bromo-5-cyanophenyl)-5-hydroxy-N-((1R,2R)-2-hydroxycyclobutyl)-6-(hydroxymethyl)-3-methoxytetrahydro-2H-pyran-2-carboxamide]", "IC50": 303}
{"smiles": "CO[C@@H]1[C@@H](n2cc(-c3cc(F)cc(F)c3)nn2)[C@@H](O)[C@@H](CO)O[C@H]1C(=O)N(c1cc(Br)cc(C#N)c1)[C@@H]1CCC[C@H]1O", "note": "[Example 1.2.5R, (2R,3R,4S,5R,6R)-N-(3-bromo-5-cyanophenyl)-4-(4-(3,5-difluorophenyl)-1H-1,2,3-triazol-1-yl)-5-hydroxy-N-((1R,2R)-2-hydroxycyclopentyl)-6-(hydroxymethyl)-3-methoxytetrahydro-2H-pyran-2-carboxamide]", "IC50": 450}
{"smiles": "CO[C@@H]1[C@@H](n2cc(-c3ccc(Br)cc3)nn2)[C@@H](O)[C@@H](CO)O[C@H]1C(=O)N(c1cc(Cl)cc(C#N)c1)[C@@H]1CCC[C@H]1O", "note": "[Example 1.19.4R, (2R,3R,4S,5R,6R)-4-(4-(4-bromophenyl)-1H-1,2,3-triazol-1-yl)-N-(3-chloro-5-cyanophenyl)-5-hydroxy-N-((1R,2R)-2-hydroxycyclopentyl)-6-(hydroxymethyl)-3-methoxytetrahydro-2H-pyran-2-carboxamide]", "IC50": 312}
{"smiles": "CO[C@@H]1[C@@H](n2cc(-c3cc(F)c(F)c(F)c3)nn2)[C@@H](O)[C@@H](CO)O[C@H]1C(=O)N(c1cc(Br)cc(C#N)c1)[C@@H]1CCC[C@H]1O", "note": "[Example 1.1.5R, (2R,3R,4S,5R,6R)-N-(3-bromo-5-cyanophenyl)-5-hydroxy-N-((1R,2R)-2-hydroxycyclopentyl)-6-(hydroxymethyl)-3-methoxy-4-(4-(3,4,5-trifluorophenyl)-1H-1,2,3-triazol-1-yl)tetrahydro-2H-pyran-2-carboxamide]", "IC50": 98.8}
{"smiles": "CO[C@@H]1[C@@H](n2cc(-c3ccc(C#N)c(F)c3)nn2)[C@@H](O)[C@@H](CO)O[C@H]1C(=O)N(c1cc(C)cc(C#N)c1)[C@H]1CCC[C@@H]1O", "note": "[Example 1.16.8, (2R,3R,4S,5R,6R)-4-(4-(4-cyano-3-fluorophenyl)-1H-1,2,3-triazol-1-yl)-N-(3-cyano-5-methylphenyl)-5-hydroxy-N-((1S,2S)-2-hydroxycyclopentyl)-6-(hydroxymethyl)-3-methoxytetrahydro-2H-pyran-2-carboxamide]", "IC50": 163}
{"smiles": "CC(=O)O[C@@H]1[C@@H](n2cc(-c3cc(F)c(F)c(F)c3)nn2)[C@@H](O)[C@@H](CO)O[C@H]1C(=O)N(c1cc(Cl)cc(C#N)c1)[C@H]1CC[C@@H]1O", "note": "[Example 2A.1.4, (2R,3R,4S,5R,6R)-2-((3-chloro-5-cyanophenyl)((1S,2S)-2-hydroxycyclobutyl)carbamoyl)-5-hydroxy-6-(hydroxymethyl)-4-(4-(3,4,5-trifluorophenyl)-1H-1,2,3-triazol-1-yl)tetrahydro-2H-pyran-3-yl acetate]", "IC50": 36.2}
{"smiles": "COc1cc(-c2cn([C@H]3[C@@H](O)[C@@H](CO)O[C@@H](C(=O)N(c4cc(Cl)cc(Cl)c4)[C@H]4CC[C@@H]4O)[C@@H]3OC)nn2)cc(F)c1F", "note": "[Example 2.3.2, (2R,3R,4S,5R,6R)-N-(3,5-dichlorophenyl)-4-(4-(3,4-difluoro-5-methoxyphenyl)-1H-1,2,3-triazol-1-yl)-5-hydroxy-N-((1S,2S)-2-hydroxycyclobutyl)-6-(hydroxymethyl)-3-methoxytetrahydro-2H-pyran-2-carboxamide]", "IC50": 67.8}
{"smiles": "CO[C@@H]1[C@@H](n2cc(-c3ccc(C#N)c(F)c3)nn2)[C@@H](O)[C@@H](CO)O[C@H]1C(=O)N(c1cc(Br)cc(C#N)c1)[C@@H]1CC[C@H]1O", "note": "[Example 2.16.5R, (2R,3R,4S,5R,6R)-N-(3-bromo-5-cyanophenyl)-4-(4-(4-cyano-3-fluorophenyl)-1H-1,2,3-triazol-1-yl)-5-hydroxy-N-((1R,2R)-2-hydroxycyclobutyl)-6-(hydroxymethyl)-3-methoxytetrahydro-2H-pyran-2-carboxamide]", "IC50": 805}
{"smiles": "CO[C@@H]1[C@@H](n2cc(-c3ccc(Cl)c(F)c3F)nn2)[C@@H](O)[C@@H](CO)O[C@H]1C(=O)N(c1cc(Br)cc(C#N)c1)[C@H]1CCC[C@@H]1O", "note": "[Example 1.14.5, (2R,3R,4S,5R,6R)-N-(3-bromo-5-cyanophenyl)-4-(4-(4-chloro-2,3-difluorophenyl)-1H-1,2,3-triazol-1-yl)-5-hydroxy-N-((1S,2S)-2-hydroxycyclopentyl)-6-(hydroxymethyl)-3-methoxytetrahydro-2H-pyran-2-carboxamide]", "IC50": 17.4}
